From US8586522B2, “Glycol dilevulinates as coupling agents in cleaning formulations” (Dow Global Technologies LLC, priority 2011, dated 2013) come the findings set out here.

A short description of series [1]: Water solubility of alkylene glycol dilevulinates. Type of series: physicochemical. The text has this:
Ethylene glycol dilevulinate (EGDL) is 100% water soluble while 1,2-propylene glycol dilevulinate (1,2-PGDL) is 10% soluble by weight in water, and 1,3-propylene glycol dilevulinate (1,3-PGDL) is 25% soluble. All three compounds also dissolve aromatic hydrocarbon compounds such as toluene and xylene, while having limited solubility for simple aliphatic hydrocarbons such as hexane and cyclohexane. Thus, C2-C3 alkylene glycol dilevulinates appear to provide the greatest benefits when used as coupling agents in water-based cleaning formulations.

The nature of series [2]: Coupling effectiveness / phase stability with d-limonene (Sets I & II). Type of series: physicochemical. Also on record: key to appearance of sample formulation (coupling of d-limonene): clear: Clear indicates successful coupling of the d-limonene; cloudy indicates poor or no coupling. The note with it: for appearance of sample formulation (coupling of d-limonene): 20% coupling agent, Column 6; for effectiveness at coupling d-limonene: absence of surfactant (0% SLS); for d-limonene level successfully coupled: 1% SLS, solvent at a 20% level, highest d-limonene level tested. As to the method:
Two sets of experiments (I & II) were performed to determine the relative coupling effectiveness of fragrance (d-limonene)-containing aqueous formulations having various traditional coupling agents (glycol ethers) and those having various alkylene glycol dilevulinates as the coupling agents, at various temperatures (5° C., room temperature (25° C.) and 40° C.). The details are provided below and the results are shown in diagrams provided in FIGS. 1-16 and explained hereinbelow.
Stock solutions were prepared that contained the main components which didn't change throughout these experiments. Each formulation contained the following standard ingredients: […]
With reference now to the figures, FIGS. 1-8 relate to the Set of Comparative Examples. Each circle represents one sample formulation. More particularly, each of FIGS. 1 & 5 provide a schematic grid diagram of the general layout of sample formulations having various types of glycol ethers as coupling agents and various amounts of d-limonene fragrance, in the presence of 1% SLS surfactant and absence (0% SLS) of surfactant.
FIGS. 2-4 & 6-8 show the results (clear/white or cloudy/black) for the sample formulations identified in the grids of FIGS. 1 and 5 at 5° C., room temperature (25° C.), and 40° C., respectively. Clear indicates successful coupling of the d-limonene and cloudy indicates poor or no coupling.
FIGS. 9-16 relate to the Set II of Working Examples. As with FIGS. 1-8, each circle represents one sample formulation. More particularly, FIG. 9 provides a schematic grid diagram of the general layout of sample formulations having various types of alkylene glycol dilevulinates as coupling agents and various amounts of d-limonene fragrance. For instance, rows A & B of the grid in FIG. 9 were formulations that each had 0.25% by weight d-limonene. Thus, rows A & B of each of FIGS. 10-12 & 14-16 depict formulations that had 0.25% by weight d-limonene.
FIGS. 10-12 & 14-16 show the results (clear/white or cloudy/black) for the sample formulations identified in the grids of FIGS. 9 & 13 at 5° C., room temperature (25° C.), and 40° C., respectively. Clear indicates successful coupling of the d-limonene and cloudy indicates poor or no coupling.

As for `CC(=O)CCC(=O)OCC(C)OC(=O)CCC(C)=O` (centres unmarked) [1,2-PGDL, 1,2-propylene glycol dilevulinate], the “water soluble / soluble by weight in water” value (from here on “water soluble / soluble”) in series [1] is on record as 10%.

On to `CC(=O)CCC(=O)OCCOC(=O)CCC(C)=O` [EGDL, ethylene glycol dilevulinate], for which the “appearance of sample formulation (coupling of d-limonene)” value in series [2] (5° C. (FIG. 2), 1.5% d-limonene, Row F) is reported as “clear”; in series [2] (40° C., 1.5% d-limonene, Row F) it was “cloudy”; in series [2] (room temperature (FIG. 3), 1.5% d-limonene, Row F) it was “clear”. The “effectiveness at coupling d-limonene” value in series [2] was “better than 1,2-propylene glycol dilevulinate”. Moreover, the “water soluble / soluble” value in series [1] was 100%.

Regarding `CC(=O)CCC(=O)OCCCOC(=O)CCC(C)=O` [1,3-propylene glycol dilevulinate], the “effectiveness at coupling d-limonene” value in series [2] is on record as “better than 1,2-propylene glycol dilevulinate”.

Consider `CCCCCCOCCOCCO` [HxCb, diethylene glycol n-hexyl ether], for which the “d-limonene level successfully coupled” value in series [2] was 3%. For the same molecule, the “appearance of sample formulation (coupling of d-limonene)” value in series [2] (5° C. (FIG. 2), 0.75% d-limonene, Row D) is “cloudy”; in series [2] (40° C., 0.75% d-limonene, Row D), “cloudy”; in series [2] (room temperature (FIG. 3), 0.75% d-limonene, Row D), “clear”.

`COC(C)COC(C)CO` (centres unmarked) [DOWANOL DPM, dipropylene glycol methyl ether]: the “d-limonene level successfully coupled” value in series [2] is given as 3%. Also, in series [2] (absence of added SLS surfactant), the “d-limonene level coupled into an aqueous mixture” value was “more than 0.25%”.

For the molecule `CC(=O)CCC(=O)OCCCOC(=O)CCC(C)=O` [1,3-PGDL, 1,3-propylene glycol dilevulinate], in series [1], the “water soluble / soluble” value is given as 25%.
